Measurements reported in ChEMBL document CHEMBL1154005 (J Med Chem, 2009).
Active and inactive are the calls of the source.

Experiments:
Cytochrome P450 2C9 = Cytochrome P450 2C9 (Homo sapiens, UniProt P11712); assay: Inhibition of CYP2C9 in human liver microsomes using diclofenac substrate; format: ADME, Microsome
Adipocyte = assay: Inhibition of lipolysis in IBMX-stimulated human adipocytes assessed as glycerol release after 5 hrs; format: functional, cell-based
[1] = Cmax in C57BL/6 mouse at 2 mg/kg, po; format: ADME, organism-based; design: dose 2 mg/kg, route oral; conditions: in vivo
[2] = Oral bioavailability in C57BL/6 mouse at 2 mg/kg; format: ADME, organism-based; conditions: in vivo
[3] = Half life in C57BL/6 mouse at 1 mg/kg, iv or 2 mg/kg, po; format: ADME, organism-based; conditions: in vivo
[4] = Volume of distribution at steady state in C57BL/6 mouse at 1 mg/kg, iv or 2 mg/kg, po; format: ADME, organism-based; conditions: in vivo, read-out: Vdss
[5] = Plasma clearance in C57BL/6 mouse at 1 mg/kg, iv or 2 mg/kg, po; format: ADME, organism-based
Cytochrome P450 2C8 = biological target: T1, Cytochrome P450 2C8 (Homo sapiens, UniProt P10632); assay: Inhibition of CYP2C8 in human liver microsomes using montelukast substrate; format: ADME, Microsome
T1 sequence (P10632 whole entry): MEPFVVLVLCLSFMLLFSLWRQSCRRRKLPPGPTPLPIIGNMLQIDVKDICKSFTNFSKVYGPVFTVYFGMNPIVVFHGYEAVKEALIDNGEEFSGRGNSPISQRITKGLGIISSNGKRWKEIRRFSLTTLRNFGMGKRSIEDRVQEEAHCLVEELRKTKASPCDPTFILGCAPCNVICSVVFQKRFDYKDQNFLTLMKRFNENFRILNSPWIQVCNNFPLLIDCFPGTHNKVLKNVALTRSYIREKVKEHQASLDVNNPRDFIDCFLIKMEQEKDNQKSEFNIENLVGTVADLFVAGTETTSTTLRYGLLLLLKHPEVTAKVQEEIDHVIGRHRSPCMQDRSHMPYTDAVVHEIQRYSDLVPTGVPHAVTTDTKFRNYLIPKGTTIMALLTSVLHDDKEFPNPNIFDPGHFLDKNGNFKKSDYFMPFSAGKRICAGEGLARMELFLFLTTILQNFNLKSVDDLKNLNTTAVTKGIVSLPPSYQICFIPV

Rattus norvegicus [6] = assay: Toxicity in Sprague-Dawley rat assessed as plasma concentration at threshold dose for vasodilation at 100 mg/kg, sc; format: organism-based; design: dose 100 mg/kg, route subcutaneous; conditions: in vivo, read-out: Activity
[7] = biological target: Hydroxycarboxylic acid receptor 2 (Rattus norvegicus, UniProt Q80Z39); assay: Agonist activity at rat GPR109A expressed by [35S]GTPgammaS binding assay; format: functional
Rattus norvegicus [8] = assay: Toxicity in Sprague-Dawley rat assessed as induction of intense flushing by measuring blood perfusion change by Doppler flometry at 100 mg/kg, sc; format: organism-based; design: dose 100 mg/kg, route subcutaneous; conditions: in vivo
Rattus norvegicus [9] = assay: Reduction in free fatty acid level in 18 hrs fasted po dosed Sprague-Dawley rat; format: functional, organism-based
[10] = Therapeutic index, ratio of plasma concentration at threshold dose for vasodilation to IC50 for free fatty acid reduction in Sprague-Dawley rat; format: cell-free; conditions: read-out: TI
Rattus norvegicus [11] = assay: Reduction in free fatty acid level in 18 hrs fasted Sprague-Dawley rat at 100 mg/kg, po; format: functional, organism-based; design: dose 100 mg/kg
Rattus norvegicus [12] = assay: Plasma concentration in Sprague-Dawley rat at 100 mg/kg, sc; format: ADME, organism-based; design: dose 100 mg/kg, route subcutaneous; conditions: in vivo
Rattus norvegicus [13] = assay: Toxicity in Sprague-Dawley rat assessed as plasma concentration at threshold dose for vasodilation at 1 mg/kg, sc; conditions: read-out: Activity, in vivo
Rattus norvegicus [14] = assay: Plasma concentration in Sprague-Dawley rat at 1 mg/kg, sc; conditions: read-out: Cp, in vivo

Cytochrome P450 2C9, sequence (P11712 whole entry): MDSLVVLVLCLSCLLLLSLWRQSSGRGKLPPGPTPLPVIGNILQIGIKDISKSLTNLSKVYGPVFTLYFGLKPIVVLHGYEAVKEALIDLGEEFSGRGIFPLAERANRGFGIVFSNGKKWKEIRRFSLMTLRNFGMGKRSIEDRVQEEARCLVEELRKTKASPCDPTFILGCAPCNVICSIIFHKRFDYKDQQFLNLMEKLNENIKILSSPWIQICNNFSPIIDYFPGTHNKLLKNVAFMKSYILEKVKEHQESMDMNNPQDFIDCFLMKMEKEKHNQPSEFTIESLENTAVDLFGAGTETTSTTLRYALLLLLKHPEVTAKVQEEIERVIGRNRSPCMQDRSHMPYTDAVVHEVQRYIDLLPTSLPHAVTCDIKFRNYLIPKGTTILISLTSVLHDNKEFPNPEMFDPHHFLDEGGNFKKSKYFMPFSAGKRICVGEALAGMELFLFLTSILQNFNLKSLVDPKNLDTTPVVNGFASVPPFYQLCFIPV
Hydroxycarboxylic acid receptor 2, sequence (Q80Z39 whole entry, the tested form may be a part): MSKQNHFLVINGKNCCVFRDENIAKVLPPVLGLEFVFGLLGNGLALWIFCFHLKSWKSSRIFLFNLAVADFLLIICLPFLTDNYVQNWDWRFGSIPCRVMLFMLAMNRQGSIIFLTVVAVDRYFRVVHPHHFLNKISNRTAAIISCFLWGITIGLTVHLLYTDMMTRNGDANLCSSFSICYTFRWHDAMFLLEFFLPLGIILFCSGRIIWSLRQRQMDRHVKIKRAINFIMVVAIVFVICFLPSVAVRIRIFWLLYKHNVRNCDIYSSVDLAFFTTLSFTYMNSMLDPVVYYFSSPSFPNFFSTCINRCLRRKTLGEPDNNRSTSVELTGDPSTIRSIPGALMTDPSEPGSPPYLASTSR

SMILES | IC50 (Cytochrome P450 2C9) [µM] | IC50 (Adipocyte) [µM] | Cmax [1] [µM] | bioavailability [2] [%] | half-life [3] [h] | Vd [4] [L/kg] | clearance [5] [L/h/kg] | IC50 (Cytochrome P450 2C8) [µM] | also measured
Cn1nc(CCC(=O)Nc2ccccc2C(=O)O)c2c1-c1ccc(O)cc1CC2 | 17 | – | – | – | – | – | – | – | –
O=C(CCc1cn2c(n1)sc1cc(O)ccc12)NC1=C(C(=O)O)CCCC1 | 12 | 2.6 | 3.8 | 25 | 4.4 | 0.32 | 0.054 | – | –
O=C(CCc1cnn2c1ccc1cc(O)ccc12)NC1=C(C(=O)O)CCCC1 | 19 | 0.06 | – | – | – | – | – | – | –
O=C(CCc1noc2c1ccc1cc(O)ccc12)NC1=C(C(=O)O)CCCC1 | 12 | – | – | – | – | – | – | – | –
O=C(CCc1ccc2c(ccc3[nH]ncc32)c1)Nc1ccccc1C(=O)O | < 0.14 | – | 3.9 | 24 | 3.5 | 0.19 | 0.036 | – | –
O=C(CCc1noc2c1CCc1cc(O)ccc1-2)NC1=C(C(=O)O)CCCC1 | 11 | – | – | – | – | – | – | 44 | –
O=C(CCc1cnn2c1CCc1cc(O)ccc1-2)Nc1ccccc1C(=O)O | 18 | 0.11 | 0.35 | 17 | 2.9 | 1.8 | 0.72 | 11 | concentration (Rattus norvegicus [6]): 500 µM; EC50 [7]: 2.7 µM; Activity (Rattus norvegicus [8]): Not Active; IC50 (Rattus norvegicus [9]): 60 µM; selectivity ratio [10]: 8; Activity (Rattus norvegicus [11]): Active; concentration (Rattus norvegicus [12]): 500 µM
O=C(CCc1noc2c1CCc1cc(O)ccc1-2)NC1=C(C(=O)O)CCC1 | 47 | – | 1.83 | 7.5 | 1.9 | 0.2 | 0.246 | 47 | –
O=C(CCc1noc2c1ccc1cc(O)ccc12)Nc1ccccc1C(=O)O | 0.99 | 0.15 | – | – | – | – | – | – | –
O=C(O)c1cccnc1 [NIACIN] | – | 0.07 | – | – | – | – | – | – | concentration (Rattus norvegicus [13]): 7.6 µM; IC50 (Rattus norvegicus [9]): 5 µM; concentration (Rattus norvegicus [14]): 7.6 µM
O=C(CCc1[nH]nc2c1ccc1cc(O)ccc12)Nc1ccccc1C(=O)O | 9.2 | 0.06 | – | – | – | – | – | 5.8 | –
O=C(CCc1cn2c(n1)sc1cc(O)ccc12)Nc1ccccc1C(=O)O | – | 0.2 | – | – | – | – | – | – | –
O=C(CCc1cn2c(n1)sc1cc(O)ccc12)NC1=C(C(=O)O)CCC1 | 12 | – | – | – | – | – | – | – | –
O=C(CCc1[nH]nc2c1CCc1cc(O)ccc1-2)Nc1ccccc1C(=O)O | 26 | 0.28 | 0.073 | 1.4 | 2.1 | 0.44 | 0.144 | 23 | –

The remaining compounds from weak to strong by IC50 (Cytochrome P450 2C9), led by results:

IC50 (Cytochrome P450 2C9) [µM] | IC50 (Adipocyte) [µM] | Cmax [1] [µM] | bioavailability [2] [%] | half-life [3] [h] | Vd [4] [L/kg] | clearance [5] [L/h/kg] | IC50 (Cytochrome P450 2C8) [µM] | SMILES | also measured
8.5 | – | – | – | – | – | – | 20 | O=C(CCc1noc2c1Cc1cc(O)ccc1-2)Nc1ccccc1C(=O)O | –
4.7 | – | 1.26 | 10 | 2.3 | 0.26 | 0.084 | – | Cn1c(=O)c2cc(O)ccc2c2ccc(CCC(=O)Nc3ccccc3C(=O)O)cc21 | –
4.4 | – | – | – | – | – | – | – | O=C(CCc1cn2c(n1)sc1ccccc12)Nc1ccccc1C(=O)O | –
2.2 | – | 0.62 | 8.2 | 1.8 | 1.1 | 0.582 | 5.9 | O=C(CCc1noc2c1CCc1cc(O)ccc1-2)Nc1ccccc1C(=O)O | –
2 | – | – | – | – | – | – | – | O=C(CCc1noc2c1ccc1c(F)c(O)ccc12)NC1=C(C(=O)O)CCCC1 | –
1.5 | – | – | – | – | – | – | – | O=C(CCc1noc2c1ccc1c(Cl)c(O)ccc12)NC1=C(C(=O)O)CCCC1 | –
1.5 | 0.02 | 0.17 | 6 | 1.7 | 0.95 | 0.42 | – | O=C(CCc1nnn2c1ccc1cc(O)ccc12)Nc1ccccc1C(=O)O | –
